The source of these data is PMC3065929 (Journal of the American Chemical Society, 2011).

What all share (format): biochemical
For assay [1], the target named is T1, CoBPO (Corallina officinalis, UniProt Q8LLW7).
T1 sequence (Q8LLW7 1-598): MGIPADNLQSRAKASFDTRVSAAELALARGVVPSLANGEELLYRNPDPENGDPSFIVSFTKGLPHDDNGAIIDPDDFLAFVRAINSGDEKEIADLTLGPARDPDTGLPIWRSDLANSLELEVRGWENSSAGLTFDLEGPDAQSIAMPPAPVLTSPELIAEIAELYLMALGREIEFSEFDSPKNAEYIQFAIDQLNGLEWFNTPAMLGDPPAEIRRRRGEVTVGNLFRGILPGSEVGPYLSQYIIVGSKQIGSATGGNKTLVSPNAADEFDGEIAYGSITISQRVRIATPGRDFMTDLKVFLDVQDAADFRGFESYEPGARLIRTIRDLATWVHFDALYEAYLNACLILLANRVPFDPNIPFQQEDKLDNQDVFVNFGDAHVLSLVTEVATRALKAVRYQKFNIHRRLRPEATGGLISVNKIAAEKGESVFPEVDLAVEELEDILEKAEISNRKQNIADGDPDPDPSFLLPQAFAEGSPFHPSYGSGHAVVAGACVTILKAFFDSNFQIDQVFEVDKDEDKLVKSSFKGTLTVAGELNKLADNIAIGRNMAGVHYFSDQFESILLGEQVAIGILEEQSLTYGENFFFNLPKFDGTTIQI
In words: spectrophotometric MCD bromination assay. The note with it: H2O2, 0.2 M bromide, 30 °C.

Assay [2] has as its target T1, CoBPO. Briefly: conversion to products.
In another assay the target is T2, NapH1 (Streptomyces sp. CNQ-525, UniProt A7KH27).
T2 sequence (A7KH27 42-527): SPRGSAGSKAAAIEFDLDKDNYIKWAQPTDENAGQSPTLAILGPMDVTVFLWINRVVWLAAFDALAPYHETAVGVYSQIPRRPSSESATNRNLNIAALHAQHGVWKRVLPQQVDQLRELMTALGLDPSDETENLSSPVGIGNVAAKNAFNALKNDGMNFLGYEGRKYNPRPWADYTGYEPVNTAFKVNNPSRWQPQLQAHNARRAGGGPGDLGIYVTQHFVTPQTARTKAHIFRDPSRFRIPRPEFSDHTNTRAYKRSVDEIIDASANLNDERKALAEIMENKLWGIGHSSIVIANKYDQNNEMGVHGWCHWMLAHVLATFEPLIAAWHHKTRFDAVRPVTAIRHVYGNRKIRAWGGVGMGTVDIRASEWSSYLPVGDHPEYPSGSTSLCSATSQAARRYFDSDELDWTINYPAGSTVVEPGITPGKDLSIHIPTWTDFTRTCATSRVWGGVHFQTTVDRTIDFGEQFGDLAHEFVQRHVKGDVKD
Briefly: HPLC assay of chlorination-cyclization. The note with it: H2O2, chloride, pH 6; estimated, below detection limit of the assay.

The structures appear in SMILES notation. Some results are limits rather than exact numbers.

In the case of `CC1(C)CC(=O)C(Cl)C(=O)C1` [monochlorodimedone], on CoBPO [1], the “spectrophotometric MCD bromination assay (290 nm)” value is on record as “Corallina officinalis V-BPO (CoBPO) (below)”.

For `CC(C)=CCC1=C(O)C(=O)c2ccccc2C1=O` [lapachol, 4-hydroxy-3-(3-methylbut-2-enyl)naphthalene-1,2-dione], the conversion to products entry on CoBPO [2] is recorded as “CoBPO catalyzed the complete conversion of lapachol into numerous products”.

As a reminder, the Km is the concentration of substrate that gives half-maximal velocity. Regarding `CC(C)=CCC/C(C)=C/C[C@@]1(O)C(=O)c2cc(O)c(C)c(O)c2C(=O)[C@]1(Cl)CC=C(C)C` [compound 3, SF2415B1], the Km at NapH1 is < 1 µM.
